Experimental data: US8808737B2 (Endo Pharmaceuticals Inc., priority 2007, dated 2014)

Experiments:
[1] = Example 5: plasma pharmacokinetics of oxymorphone and metabolites after EN3202 in renal impairment vs healthy controls; conditions: for Mean bioavailability ratio (90% confidence interval) for AUC relative to controls / Mean bioavailability ratio (90% confidence interval) for Cmax relative to controls: ln-transformed; for AUC: AUC in plasma (mean, untransformed); for AUC(0-t): AUCT in plasma (mean, untransformed); for Cmax: Cmax in plasma (mean, untransformed); for half-life: t½, terminal elimination half-life in plasma (mean)
Experimental: (§1) Attempts were made to match controls with the renal impaired patients with respect to age, gender, and weight. […] Naltrexone (50 mg) was administered on the evening prior to administration of the EN3202 dose.
In order to protect the subjects from potential opioid-related adverse events, a single 50-mg dose of the opioid antagonist ReVia® (naltrexone HCl) was administered at 20:00 the evening prior to administration of test medication. […] Subjects continued fasting until four (4) hours after dose administration. The subjects remained in an upright posture (sitting or standing) for 1 hour after dose administration. All doses were administered with 240 mL of water (room temperature), and the subjects were instructed to drink all the water.
(§2) Plasma and urine pharmacokinetic variables were calculated from the concentration data using standard, non-compartmental methods as outlined in the following table.
All pharmacokinetic results are summarized using appropriate descriptive statistics. Continuous variables were compared between renally impaired and control groups using appropriate parametric statistics. 90% confidence intervals were calculated for the differences or ratios between the renally impaired and control groups. In addition, the association between oral clearance (and other pharmacokinetic variables) and the severity of renal insufficiency (based on creatinine clearance) was explored.

[2] = Pain levels (VAS, categorical scale) vs plasma oxymorphone and 6-hydroxyoxymorphone after a single dose; assay type: in vivo, human; conditions: single dose of oxymorphone, FIGS. 1-4
Experimental: For these tests, pain was measured using a Visual Analog Scale (VAS) or a Categorical Scale. The VAS scales consisted of a horizontal line, 100 mm in length. The left-hand end of the scale (0 mm) was marked with the descriptor “No Pain” and the right-hand end of the scale (100 mm) was marked with the descriptor “Extreme Pain”. Patients indicated their level of pain by making a vertical mark on the line. The VAS score was equal to the distance (in mm) from the left-hand end of the scale to the patient's mark. For the categorical scale, patients completed the following statement, “My pain at this time is” using the scale None=0, Mild=1, Moderate=2, or Severe=3.

[3] = Example 5: urinary excretion of oxymorphone and metabolites after EN3202 in renal impairment; conditions: for Mean (SD) Percent of Dose Recovered in Urine (0-120 hours): single oral 20-mg dose of EN3202; for half-life: human, urine, oral, 20 mg, Mean urinary elimination half-life
Experimental: as §1
Each subject was to be instructed to void at the end of each interval (so that each collection interval began with an empty bladder). The void prior to administration of the test medication (time 0) served as the pre-dose blank and was not be included in the collection container.
as §2

[4] = Example 5: correlation of oxymorphone and metabolite plasma AUC / oral clearance with creatinine clearance; assay type: in vivo, human; conditions: linear regression
Description: Creatinine clearance (ClCR) was estimated at screening using the following Cockroft and Gault^8 equation: […]
All pharmacokinetic results are summarized using appropriate descriptive statistics.
The potential association between plasma AUC and creatinine clearance was explored using linear regression techniques and the results are summarized in Table 36 and FIG. 16.

[5] = in vivo; cited from earlier work
[6] = EN3202 20 mg, mild renal impairment
[7] = EN3202 20 mg, moderate renal impairment
[8] = EN3202 20 mg, severe renal impairment
[9] = human, plasma, oral, 20 mg, single 20 mg dose of EN3202, Healthy Controls
[10] = human, plasma, oral, 20 mg, single 20 mg dose of EN3202, Mild Impairment
[11] = human, plasma, oral, 20 mg, single 20 mg dose of EN3202, Moderate Impairment
[12] = human, plasma, oral, 20 mg, single 20 mg dose of EN3202, Severe Impairment
[13] = single 20 mg dose of EN3202, Moderate Impairment
[14] = single 20 mg dose of EN3202, Severe Impairment
[15] = AUC normalized for body weight vs creatinine clearance
[16] = oral clearance vs creatinine clearance
[17] = plasma AUC vs creatinine clearance

CN1CC[C@]23c4c5ccc(O)c4O[C@H]2C(=O)CC[C@@]3(O)[C@H]1C5 [Oxymorphone, 14-hydroxydihydromorphinone, reference compound]
Mean bioavailability ratio (90% confidence interval) for AUC relative to controls [1, 6]: 1.2559 (0.8566-1.8414)
Mean bioavailability ratio (90% confidence interval) for Cmax relative to controls [1, 6]: 1.3772 (0.9359-2.0265)
Mean bioavailability ratio (90% confidence interval) for AUC relative to controls [1, 7]: 1.5722 (1.0723-2.3051)
Mean bioavailability ratio (90% confidence interval) for Cmax relative to controls [1, 7]: 1.6494 (1.1209-2.4270)
Mean AUC increased relative to healthy controls [1, 8]: 1.7 fold
Mean bioavailability ratio (90% confidence interval) for AUC relative to controls [1, 8]: 1.6529 (1.1274-2.4234)
Mean bioavailability ratio (90% confidence interval) for Cmax relative to controls [1, 8]: 1.8042 (1.2261-2.6549)
Mean increase in plasma AUC values relative to healthy controls ([1]; EN3202 20 mg, subjects with creatinine clearance values, 30 mL/min): approximately 1.8 fold
Tmax ([1]; human, plasma, oral, 20 mg): 3.5 h
AUC [1, 9]: 18.9 ng·h/mL
AUC [1, 10]: 21.7 ng·h/mL
AUC [1, 11]: 27.9 ng·h/mL
AUC [1, 12]: 34.5 ng·h/mL
AUC(0-t) [1, 9]: 15.8 ng·h/mL
AUC(0-t) [1, 10]: 19 ng·h/mL
AUC(0-t) [1, 11]: 26.1 ng·h/mL
AUC(0-t) [1, 12]: 29.7 ng·h/mL
Cmax [1, 9]: 1.16 ng/mL
Cmax [1, 10]: 1.47 ng/mL
Cmax [1, 11]: 1.75 ng/mL
Cmax [1, 12]: 2.04 ng/mL
half-life [1, 9]: 13.5 h
half-life [1, 10]: 12.4 h
half-life [1, 12]: 13.3 h
CLo, clearance after oral administration (mean) ([1]; single 20 mg dose of EN3202, Healthy Controls): 22.07 L/min
CLo, clearance after oral administration (mean) ([1]; single 20 mg dose of EN3202, Mild Impairment): 16.14 L/min
CLo, clearance after oral administration (mean) [1, 13]: 13.53 L/min
t½, terminal elimination half-life in plasma (mean) [1, 13]: 9.92 h
AUC in plasma (mean, untransformed) [1, 14]: 32.46 ng·h/mL
CLo, clearance after oral administration (mean) [1, 14]: 13.79 L/min
Tmax in plasma (median) [1, 14]: 2.0 h
Relation between pain relief and blood plasma level [2]: there is a correlation
Mean percentage of the administered dose excreted in the urine ([3]; EN3202 20 mg, 0-120 hours, severe renal impairment): 0.38%
Mean percentage of the dose excreted in the urine unchanged, reduced relative to healthy controls [3, 8]: approximately 50%
Mean (SD) Percent of Dose Recovered in Urine (0-120 hours) ([3]; healthy controls): 0.77 (0.36) %
half-life ([3]; EN3202 20 mg, healthy controls): 12.5 h
half-life [3, 6]: 12.1 h
half-life [3, 7]: 13.9 h
half-life [3, 8]: 21 h
Mean (SD) Percent of Dose Recovered in Urine (0-120 hours) ([3]; subjects with mild renal impairment): 1.37 (2.10) %
Mean (SD) Percent of Dose Recovered in Urine (0-120 hours) ([3]; subjects with moderate renal impairment): 0.66 (0.29) %
Mean (SD) Percent of Dose Recovered in Urine (0-120 hours) ([3]; subjects with severe renal impairment): 0.38 (0.19) %
AUC/wt vs. CLCR: R-square [4, 15]: 0.2898
AUC/wt vs. CLCR: Slope [4, 15]: −0.0013
CL/F vs. CLCR: R-square [4, 16]: 0.2592
CL/F vs. CLCR: Slope [4, 16]: 0.1229
AUC vs. CLCR: R-square [4, 17]: 0.2400
AUC vs. CLCR: Slope [4, 17]: −0.1852
Oral bioavailability [5]: about 10%
